Earlier results, collected in patent US20140018251A1, “Methods for Predicting Response to Anti-Cancer Therapy in Cancer Patients” (Stichting Het Nederlands Kanker Instituut, priority 2010, published 2014).

Tested on: mouse mammary tumors lacking BRCA1

Structure (SMILES): N.N.[Cl][Pt][Cl] [cisplatin]
- sensitivity of tumors: extremely sensitive
